Test [1] has as its system CYPES. Briefly: Pre-emergence action against CYPES. Format: in vivo, Cyperus esculentus. As to conditions: Cyperus esculentus, 504 h; pre-emergence, dosage 320 g/ha, scored visually after 3 weeks vs untreated controls; read-out: Pre-emergence action against CYPES (herbicidal activity). The method, boiled down: (§1)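 Seeds sown in sandy loam in wood-fiber pots and covered with soil. Greenhouse growth; visual damage scored after 3 weeks versus untreated controls (100% = dead, 0% = like control).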

Test [2] has as its system POLCO. Briefly: Post-emergence action against POLCO. It is filed as in vivo, Polygonum convolvulus. Particulars: Fallopia convolvulus, 504 h; post-emergence, dosage 80 g/ha. An outline of the steps: (§2)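 Weeds grown in sandy loam in greenhouse, treated at one-leaf stage (2–3 weeks after sowing) with WP or EC formulations sprayed as aqueous suspension/emulsion at 600 to […] water with 0.2% wetting agent. Visual rating after about 3 weeks versus untreated controls, as % herbicidal action (100% = plants dead, 0% = like control).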

Test [3] has as its system ABUTH. Briefly: Post-emergence action against ABUTH. Format: in vivo, Abutilon theophrasti. As to conditions: Abutilon theophrasti, 504 h; post-emergence, dosage 80 g/ha, visual assessment about 3 weeks after treatment vs untreated controls; read-out: Post-emergence action against ABUTH (herbicidal action in percent). An outline of the steps:
as §2

In test [4] the test system is AVEFA. Briefly: Post-emergence action against AVEFA. Format: in vivo, Avena fatua. Particulars: Avena fatua, 504 h; post-emergence, dosage 80 g/ha, visual assessment about 3 weeks after treatment vs untreated controls; read-out: Post-emergence action against AVEFA (herbicidal action in percent). An outline of the steps:
as §2

Test [5] concerns VIOTR. Briefly: Post-emergence action against VIOTR. Format: in vivo, Viola tricolor. As to conditions: Viola tricolor, 504 h; post-emergence, dosage 80 g/ha. The method, boiled down:
as §2

Test [6] relates to POLCO. Briefly: Pre-emergence action against POLCO. It is filed as in vivo, Polygonum convolvulus. As to conditions: Fallopia convolvulus, 504 h; Dosage 320 g/ha, pre-emergence. The method, boiled down: as §1
Test [7] deals with AMARE. Briefly: Pre-emergence action against AMARE. Format: in vivo, Amaranthus retroflexus. As to conditions: Amaranthus retroflexus, 504 h; pre-emergence, dosage 320 g/ha, scored visually after 3 weeks vs untreated controls; read-out: Pre-emergence action against AMARE (herbicidal activity). The method, boiled down:
as §1

Test [8] deals with STEME. Briefly: Post-emergence action against STEME. It is filed as in vivo, Stellaria media. Particulars: Stellaria media, 504 h; post-emergence, dosage 80 g/ha. An outline of the steps: as §2
The test system of test [9] is CYPES. Briefly: Post-emergence action against CYPES. Format: in vivo, Cyperus esculentus. Particulars: Cyperus esculentus, 504 h; post-emergence, dosage 80 g/ha, visual assessment about 3 weeks after treatment vs untreated controls; read-out: Post-emergence action against CYPES (herbicidal action in percent). An outline of the steps: as §2
Test [10] relates to ABUTH. Briefly: Pre-emergence action against ABUTH. Format: in vivo, Abutilon theophrasti. Particulars: Abutilon theophrasti, 504 h; pre-emergence, dosage 320 g/ha, scored visually after 3 weeks vs untreated controls; read-out: Pre-emergence action against ABUTH (herbicidal activity). An outline of the steps:
as §1

For test [11], the system named is ECHCG. Briefly: Post-emergence action against ECHCG. It is filed as in vivo, Echinochloa crus-galli. Particulars: Echinochloa crus-galli, 504 h; post-emergence, dosage 80 g/ha, visual assessment about 3 weeks after treatment vs untreated controls; read-out: Post-emergence action against ECHCG (herbicidal action in percent). The method, boiled down:
as §2

Test [12] concerns AVEFA. Briefly: Pre-emergence action against AVEFA. Format: in vivo, Avena fatua. As to conditions: Avena fatua, 504 h, dosage 320 g/ha, scored visually after 3 weeks vs untreated controls, read-out: Pre-emergence action against AVEFA (herbicidal activity). An outline of the steps:
as §1

The subject of test [13] is VIOTR. Briefly: Pre-emergence action against VIOTR. Format: in vivo, Viola tricolor. As to conditions: Viola tricolor, 504 h; Dosage 320 g/ha, pre-emergence. An outline of the steps: as §1
In test [14] the test system is PHBPU. Briefly: Post-emergence action against PHBPU. Format: in vivo, Pharbitis purpurea. Particulars: Ipomoea purpurea, 504 h; post-emergence, dosage 80 g/ha. The method, boiled down: as §2
Test [15] deals with ECHCG. Briefly: Pre-emergence action against ECHCG. It is filed as in vivo, Echinochloa crus-galli. As to conditions: Echinochloa crus-galli, 504 h; pre-emergence, dosage 320 g/ha, scored visually after 3 weeks vs untreated controls; read-out: Pre-emergence action against ECHCG (herbicidal activity). The method, boiled down: as §1
The test system of test [16] is MATIN. Briefly: Pre-emergence action against MATIN. It is filed as in vivo, Matricaria inodora. As to conditions: Tripleurospermum inodorum, 504 h; Dosage 320 g/ha, pre-emergence. The method, boiled down:
as §1

The test system of test [17] is SETVI. Briefly: Post-emergence action against SETVI. Format: in vivo, Setaria viridis. As to conditions: Setaria viridis, 504 h; post-emergence, dosage 80 g/ha, visual assessment about 3 weeks after treatment vs untreated controls; read-out: Post-emergence action against SETVI (herbicidal action in percent). An outline of the steps:
as §2

Test [18] concerns STEME. Briefly: Pre-emergence action against STEME. It is filed as in vivo, Stellaria media. Particulars: Stellaria media, 504 h; Dosage 320 g/ha, pre-emergence. The method, boiled down:
as §1

Test [19] has as its system MATIN. Briefly: Post-emergence action against MATIN. Particulars: Tripleurospermum inodorum, 504 h; post-emergence, dosage 80 g/ha, visual assessment about 3 weeks after treatment vs untreated controls; read-out: Post-emergence action against MATIN (herbicidal action in percent). It is filed as in vivo, Matricaria inodora. An outline of the steps: as §2

From patent publication US11051515B2, “3-acyl-benzamides and their use as herbicides” (Bayer Aktiengesellschaft, priority 2017, dated 2021) come the findings set out here.

For `CC(=O)c1c(C(F)(F)F)ccc(C(=O)Nc2nnnn2C)c1Cl` [1-137, 3-acetyl-2-chloro-N-(1-methyl-1H-tetrazol-5-yl)-4-(trifluoromethyl)benzamide], the pest or weed control at 320 g/ha in test [1], in [6], in [7], in test [10], in test [12] and in [13] was 100% in each case. The pest or weed control at 320 g/ha in test [15], in [16] and in [18] was 100% throughout. For the same compound, the pest or weed control at 80 g/ha in test [2] is 100%; in [3], 90%; in test [4], 100%; in test [5], 100%; in [8], 100%; in test [9], 90%. Also, the pest or weed control at 80 g/ha in test [11] is 90%; in test [14], 100%; in test [17], 100%; in test [19], 90%.

Regarding `Cn1nnnc1NC(=O)c1ccc(C(F)(F)F)c(C(=O)C2CC2)c1Cl` [1-141], the pest or weed control at 320 g/ha was found to be 100% in [1]; 80% in test [6]; 100% in [7]; 100% in test [10]; 100% in test [12]; 100% in [13]. For the same compound, the pest or weed control at 320 g/ha in [15], in test [16] and in test [18] was 100% throughout. The pest or weed control at 80 g/ha in test [2] was determined as 100%; in test [3], 100%; in test [4] it was 100%; in [5] it was 100%; in test [8] it was 100%; in test [9] it was 90%. Also, the pest or weed control at 80 g/ha came out at 100% in test [11], 100% in test [14], 100% in test [17] and 90% in test [19].

As to `CC(=O)c1c(C(F)F)ccc(C(=O)Nc2nnnn2C)c1Cl` [1-164], the pest or weed control at 320 g/ha in [1], in [6], in test [7], in test [10], in test [12] and in [13] was 100% throughout. For the same compound, the pest or weed control at 320 g/ha in [15], in test [16] and in test [18] was 100% throughout. Further, the pest or weed control at 80 g/ha in test [2] is 90%; in test [3], 100%; in test [4], 80%; in test [5], 100%; in test [8], 90%; in test [9], 90%. Further, the pest or weed control at 80 g/ha is 100% in test [11], 90% in test [14], 90% in test [17] and 100% in test [19].

On to `Cn1nnnc1NC(=O)c1ccc(C(F)F)c(C(=O)C2CC2)c1Cl` [1-168], for which the pest or weed control at 320 g/ha in [1] was 90%; in [6], 90%; in [7], 100%; in test [10], 100%; in test [12], 100%; in test [13], 100%. Further, the pest or weed control at 320 g/ha in test [15], in test [16] and in [18] was 100% throughout. For the same compound, the pest or weed control at 80 g/ha in test [2], in test [3], in [4], in test [5], in [8] and in test [9] was 100% throughout. Besides, the pest or weed control at 80 g/ha in test [11], in test [14], in test [17] and in [19] was 100% each time.

Take `CCn1nnnc1NC(=O)c1ccc(C(F)(F)F)c(C(=O)C2CC2)c1C` [2-18, 3-(cyclopropylcarbonyl)-N-(1-ethyl-1H-tetrazol-5-yl)-2-methyl-4-(trifluoromethyl)benzamide]: the pest or weed control at 320 g/ha in test [1] worked out at 100%; in test [6], 90%; in [7] it was 100%; in test [10], 100%; in test [12], 100%; in [13], 100%. Besides, the pest or weed control at 320 g/ha in test [15] amounted to 100%; in test [16], 100%; in [18] it was 90%. The pest or weed control at 80 g/ha in test [2] stood at 100%; in [3], 100%; in [4], 100%; in test [5], 100%; in [8], 100%; in [9] it was 90%. The pest or weed control at 80 g/ha in test [11], in [14], in [17] and in [19] was 100% in each case.
